Experimental data taken from patent US20230086303A1 (priority 2016, published 2023).
Converted amounts (≈) assume the structure as drawn. Starred links: 1 amine or outer side, 2 acyl side, 3 side chain; linkers in the order of their positions; H or OH if unused. Positions of bridges follow the written chain, without caps; N, C: chain ends. Non-standard residues stand in square brackets, D forms with d. Residues, ends and D or L forms follow the SMILES beside them. *: point of attachment. pTerphenylCO(4''-OnC5H11) = CCCCCOc1ccc(-c2ccc(-c3ccc(C(=O)*)cc3)cc2)cc1; Orn(4R-OH,5R-OH) = O=C([C@H](C[C@@H](O)[C@@H](O)N[*:3])N[*:1])[*:2]; hTyr(3S-OH,4S-OH) = N[C@H](C(=O)O)[C@H](O)[C@@H](O)c1ccc(O)cc1; Pro(3S-OH,4S-Me) = C[C@H]1CN[C@H](C(=O)O)[C@H]1O; Hyp = O=C(O)[C@@H]1C[C@@H](O)CN1

Test: not given
Conditions: in vivo; cited from earlier work
For `C[C@@H]1[C@H](O)[C@@H](C)/C=C/C=C/C=C/C=C/C=C/C=C/C=C/[C@H](O[C@@H]2O[C@H](C)[C@@H](O)[C@H](N)[C@@H]2O)C[C@@H]2O[C@](O)(C[C@@H](O)C[C@@H](O)[C@H](O)CC[C@@H](O)C[C@@H](O)CC(=O)O[C@H]1C)C[C@H](O)[C@H]2C(=O)O` [amphotericin], the half-life is listed as “greater than 48 hours”. For `CCCCCOc1ccc(-c2ccc(-c3ccc(C(=O)N[C@H]4C[C@@H](O)[C@@H](O)NC(=O)[C@@H]5[C@@H](O)[C@@H](C)CN5C(=O)[C@H]([C@@H](C)O)NC(=O)[C@H]([C@H](O)[C@@H](O)c5ccc(O)cc5)NC(=O)[C@@H]5C[C@@H](O)CN5C(=O)[C@H]([C@@H](C)O)NC4=O)cc3)cc2)cc1` [anidulafungin] ({pTerphenylCO(4''-OnC5H11)}-[Orn(4R-OH,5R-OH)]T[Hyp][hTyr(3S-OH,4S-OH)]T[Pro(3S-OH,4S-Me)]; lactam 1-C), the half-life is given as “greater than 48 hours”. In the case of `NC(=O)N1c2ccccc2C=Cc2ccccc21` [carbamazepine], the half-life is given as “greater than 48 hours”. In the case of `O=C1CN=C(c2ccccc2Cl)c2cc([N+](=O)[O-])ccc2N1` [clonazepam], the half-life is listed as “greater than 48 hours”. In the case of `CCCCCCCCc1ccc(CCC(N)(CO)CO)cc1` [fingolimod], the half-life is given as “greater than 48 hours”. For `CCC1(c2ccccc2)C(=O)NC(=O)N(C)C1=O` (stereo not shown) [mephobarbital], the half-life is given as “greater than 48 hours”. For `CNCCC=C1c2ccccc2CCc2ccccc21` [nortriptyline], the half-life is listed as “greater than 48 hours”. For `Cc1cc2c(s1)Nc1ccccc1N=C2N1CCN(C)CC1` [olanzapine], the half-life is given as “greater than 48 hours”. For `CCC1(c2ccccc2)C(=O)NC(=O)NC1=O` [phenobarbital], the half-life is given as “greater than 48 hours”. For `CO[C@H]1C[C@@H]2CC[C@@H](C)[C@@](O)(O2)C(=O)C(=O)N2CCCC[C@H]2C(=O)O[C@H]([C@H](C)C[C@@H]2CC[C@@H](O)[C@H](OC)C2)CC(=O)[C@H](C)/C=C(\C)[C@@H](O)[C@@H](OC)C(=O)[C@H](C)C[C@H](C)/C=C/C=C/C=C/1C` [sirolimus], the half-life is listed as “greater than 48 hours”.

Test: Gastrointestinal related adverse events in clinical study
Conditions: 10 mg/day donepezil administered transdermally versus orally
Procedure: The number of subjects with treatment related adverse events is assessed daily during the 36 day confinement period and for 7 visits over a 21 day wash-out period. Assessment of local skin irritation in the subjects of Arm 1 will also be assessed daily during the 36 day confinement period and for 7 visits over a 21 day wash-out period. Skin irritation is assessed using an 8 point categorical scale of no irritation; minimal erythema, barely perceptible; definite erythema readily visible; minimal edema or minimal popular response; erythema and papules; definite edema; erythema, edema and papules; vesicular eruption; strong reaction, spreading beyond application site.
For `COc1cc2c(cc1OC)C(=O)C(CC1CCN(Cc3ccccc3)CC1)C2` (stereo not shown) [donepezil], the “number of subjects experiencing diarrhea, transdermally versus orally” value was “two-fold lower” and the “number of subjects experiencing nausea, transdermally versus orally” value was “four-fold lower”.

Test: not given
Conditions: cited from earlier work
For `C[C@]12CC3C[C@](C)(C1)C[C@@](N)(C3)C2` [free base of memantine, 3,5-dimethyladamantan-1-amine], the water solubility is given as 0.9 mg/mL (≈ 5.02 mM).
